# Results published in patent US7396655B2, “Method for enhancing activity of luciferase with fluorescence activity” (Chisso Corporation, priority 2005, dated 2008).
# Counter-ions that a name gives are not always drawn. Like-named read-outs stand apart in the source and are kept apart here.
# T1: BFP-aq, luciferase with fluorescence activity derived from aequorin (recombinant apoaequorin, SEQ ID NO: 1 with N-terminal Val replaced by Ala-Asn-Ser; complex with coelenteramide and calcium ions) (Aequorea victoria, UniProt P02592)
# T1 construct: The recombinant apoaequorins encoded by piP-HE is composed of 191 amino acids, whose N-terminus starts from Ala-Asn-Ser-; made in house; host or cells: E. coli strain WA802 (expression vector piP-HE)
# T1 sequence (P02592 with tags, fused parts or gaps): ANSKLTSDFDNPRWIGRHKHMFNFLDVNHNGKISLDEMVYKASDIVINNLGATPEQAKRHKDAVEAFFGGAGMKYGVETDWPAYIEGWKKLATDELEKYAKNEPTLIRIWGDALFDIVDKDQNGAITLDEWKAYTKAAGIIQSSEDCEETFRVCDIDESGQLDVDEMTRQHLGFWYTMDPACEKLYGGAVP
# B1: BFP-aq, luciferase with fluorescence activity derived from aequorin (recombinant apoaequorin, SEQ ID NO: 1 with N-terminal Val replaced by Ala-Asn-Ser; complex … (protein)
# chain: MTSKQYSVKLTSDFDNPRWIGRHKHMFNFLDVNHNGKISLDEMVYKASDIVINNLGATPEQAKRHKDAVEAFFGGAGMKYGVETDWPAYIEGWKKLATDELEKYAKNEPTLIRIWGDALFDIVDKDQNGAITLDEWKAYTKAAGIIQSSEDCEETFRVCDIDESGQLDVDEMTRQHLGFWYTMDPACEKLYGGAVP
# notes: The recombinant apoaequorins encoded by piP-HE is composed of 191 amino acids, whose N-terminus starts from Ala-Asn-Ser-; made in house; host or cells: E. coli strain WA802 (expression vector piP-HE)
# How the values were obtained:
# BFP-aq [1] = target: T2, BFP-aq (Aequorea victoria, UniProt P07164); assay: biochemical; assay type: biochemical; set-up: The recombinant apoaequorins encoded by piP-HE is composed of 191 amino acids, whose N-terminus starts from Ala-Asn-Ser-; made in house; host or cells: E. coli strain WA802; conditions: for Luminescence activity (%) Imax: 50 mM Tris-HCl pH 8.0, 25° C., coelenterazine 1 μg, no compound = 100%
# Method: (§1) Solutions of 50 mM Tris-HCl (pH 8.0), each containing various commercial organic compounds shown in Table 3, were prepared and pre-warmed at 25° C. The substrate coelenterazine (1 μg) was added to the solutions (200 μl) containing each of these compounds.
# [2] = cited from earlier work
# [3] = target: T1, BFP-aq, luciferase with fluorescence activity derived from aequorin (recombinant apoaequorin, SEQ ID NO: 1 with N-terminal Val replaced by Ala-Asn-Ser; complex with coelenteramide and calcium ions); assay: Enhancing effect of organic compounds on BFP-aq luminescence with coelenterazine as substrate (Table 4); assay type: biochemical; conditions: pH 8.0, 25° C., no addition = 100%; for activity at 30000 µM: 30 mM compound; for activity at 150000 µM: 150 mM compound; for activity at 300000 µM: 300 mM compound; for activity at 3 M: 3000 mM compound
# Text: To obtain recombinant apoaequorins, the apoaequorin gene expression vector piP-HE (Japanese Laid-Open Application No. 1989-132397) constructed from pAQ440 harboring the apoaequorin gene (Japanese Laid-Open Application No. 1986-135586) was used. The recombinant apoaequorins encoded by piP-HE is composed of 191 amino acids, whose N-terminus starts from Ala-Asn-Ser-(Val of the N-terminus of SEQ ID NO: 1 in the sequence listing was replaced by Ala-Asn-Ser-).
# In a VIVASPIN 2 column, the concentrated aequorin solution was overlaid with 0.9 ml of 50 mM Tris-HCl (pH 7.6) containing 5 mM calcium chloride (Wako Pure Chemicals Industries, Ltd.) and 2 mM dithiothreitol (Wako Pure Chemicals Industries, Ltd.) to trigger continuous light emission and the column was allowed to stand at […] for 24 hours or longer. […] Further, 2 ml of 50 mM Tris-HCI (pH 7.6) containing 5 mM calcium chloride (Wako Pure Chemicals Industries, Ltd.) and 2 mM dithiothreitol (Wako Pure Chemicals Industries, Ltd.) was loaded onto the VIVASPIN 2 column and the column was centrifuged under the identical conditions and then washed.
# as §1
# BFP-aq [4] = target: T2, BFP-aq; assay type: biochemical; set-up: The recombinant apoaequorins encoded by piP-HE is composed of 191 amino acids, whose N-terminus starts from Ala-Asn-Ser-; made in house; host or cells: E. coli strain WA802; conditions: for Relative luminescence activity Imax (%) / Relative luminescence activity Initial velocity (%): substrate 1 μg, BFP-aq 1.2 μg, pH 8.0, coelenterazine without imidazole = 100%
# Method: 200 μl of this solution was placed in five vessels, to each of which 1 μg of the substrate coelenterazine (CTZ) and its four analogs: h-CTZ, cp-CTZ, hcp-CTZ, f-CTZ were added.
# [5] = substrate: Oc1ccc(Cc2nc3c(Cc4ccccc4)nc(-c4ccc(O)cc4)cn3c2O)cc1; assay: Light-emitting reaction rate of BFP-aq, Lineweaver-Burk plot (Table 6); assay type: biochemical, Aequorea victoria; conditions: other: coelenterazine, pH 8.0, 25° C.
# [6] = pH 8, read-out: Luminescence activity (%) Imax
# [7] = pH 8, read-out: Luminescence activity (%) Initial velocity
# [8] = read-out: Luminescence activity, Imax
# [9] = read-out: Luminescence activity, initial velocity
molecule,measurement,setting,value
Cc1ncc[nH]1 [2-Methylimidazole],activity at 30000 µM,BFP-aq [1]; [6],63%
same,activity at 150000 µM,BFP-aq [1]; [6],16%
same,activity at 30000 µM,BFP-aq [1]; [7],83%
same,activity at 150000 µM,BFP-aq [1]; [7],21%
Cc1c[nH]cn1 [4-Methylimidazole],activity at 30000 µM,BFP-aq [1]; [6],88%
same,activity at 150000 µM,BFP-aq [1]; [6],78%
same,activity at 30000 µM,BFP-aq [1]; [7],92%
same,activity at 150000 µM,BFP-aq [1]; [7],95%
same,pKa,[2],7.5
NC(=O)c1nc[nH]c1N [5-Amino-imidazole-4-carboxamide/hydrochloride],activity at 30000 µM,[3]; [8],64%
same,activity at 30000 µM,[3]; [9],48%
same,activity at 150000 µM,[3]; [8],0%
same,activity at 150000 µM,[3]; [9],2%
same,Luminescence activity (%) Imax,BFP-aq [1]; compound 30 mM,64%
same,Luminescence activity (%) Imax,BFP-aq [1]; compound 150 mM,0%
CC(N)=O [Acetamide/hydrochloride],activity at 30000 µM,[3]; [8],73%
same,activity at 30000 µM,[3]; [9],132%
same,activity at 150000 µM,[3]; [8],31%
same,activity at 150000 µM,[3]; [9],44%
same,activity at 300000 µM,[3]; [8],55%
same,activity at 300000 µM,[3]; [9],95%
same,Luminescence activity (%) Imax,BFP-aq [1]; compound 30 mM,73%
same,Luminescence activity (%) Imax,BFP-aq [1]; compound 150 mM,31%
same,Luminescence activity (%) Imax,BFP-aq [1]; compound 300 mM,55%
N=C(N)N [Guanidine/hydrochloride],activity at 30000 µM,[3]; [8],92%
same,activity at 30000 µM,[3]; [9],130%
same,activity at 150000 µM,[3]; [8],109%
same,activity at 150000 µM,[3]; [9],226%
same,activity at 300000 µM,[3]; [8],65%
same,activity at 300000 µM,[3]; [9],118%
same,Luminescence activity (%) Imax,BFP-aq [1]; compound 30 mM,92%
same,Luminescence activity (%) Imax,BFP-aq [1]; compound 150 mM,109%
same,Luminescence activity (%) Imax,BFP-aq [1]; compound 300 mM,65%
NCCc1c[nH]cn1 [Histamine],activity at 30000 µM,BFP-aq [1]; [6],69%
same,activity at 150000 µM,BFP-aq [1]; [6],22%
same,activity at 30000 µM,BFP-aq [1]; [7],92%
same,activity at 150000 µM,BFP-aq [1]; [7],26%
same,pKa,[2],8.0
C[C@H](N)C(=O)O [L-Alanine],activity at 30000 µM,BFP-aq [1]; [6],88%
same,activity at 150000 µM,BFP-aq [1]; [6],77%
same,activity at 30000 µM,BFP-aq [1]; [7],82%
same,activity at 150000 µM,BFP-aq [1]; [7],59%
N=C(N)NCCC[C@H](N)C(=O)O [L-Arginine],activity at 30000 µM,BFP-aq [1]; [6],62%
same,activity at 150000 µM,BFP-aq [1]; [6],1%
same,activity at 30000 µM,BFP-aq [1]; [7],73%
same,activity at 150000 µM,BFP-aq [1]; [7],4%
NCC(=O)O [L-Glycine],activity at 30000 µM,[3]; [8],87%
same,activity at 30000 µM,[3]; [9],104%
same,activity at 150000 µM,[3]; [8],83%
same,activity at 150000 µM,[3]; [9],78%
same,Luminescence activity (%) Imax,BFP-aq [1]; compound 30 mM,87%
same,Luminescence activity (%) Imax,BFP-aq [1]; compound 150 mM,83%
same,pKa,[2],6.0
N[C@@H](Cc1c[nH]cn1)C(=O)O [L-Histidine],activity at 30000 µM,BFP-aq [1]; [6],37%
same,activity at 150000 µM,BFP-aq [1]; [6],5%
same,activity at 30000 µM,BFP-aq [1]; [7],82%
same,activity at 150000 µM,BFP-aq [1]; [7],27%
NCCCC[C@H](N)C(=O)O [L-Lysine],activity at 30000 µM,BFP-aq [1]; [6],60%
same,activity at 150000 µM,BFP-aq [1]; [6],1%
same,activity at 30000 µM,BFP-aq [1]; [7],66%
same,activity at 150000 µM,BFP-aq [1]; [7],10%
CCN(CC)CC [Triethylamine],activity at 30000 µM,BFP-aq [1]; [6],68%
same,activity at 150000 µM,BFP-aq [1]; [6],8%
same,activity at 30000 µM,BFP-aq [1]; [7],68%
same,activity at 150000 µM,BFP-aq [1]; [7],12%
NC(N)=O [Urea],activity at 30000 µM,[3]; [8],84%
same,activity at 30000 µM,[3]; [9],113%
same,activity at 150000 µM,[3]; [8],89%
same,activity at 150000 µM,[3]; [9],104%
same,activity at 3 M,[3]; [8],29%
same,activity at 3 M,[3]; [9],57%
same,Luminescence activity (%) Imax,BFP-aq [1],29%
same,Luminescence activity (%) Imax,BFP-aq [1]; compound 30 mM,84%
same,Luminescence activity (%) Imax,BFP-aq [1]; compound 150 mM,89%
O=C(O)/C=C/c1c[nH]cn1 [Urocanic acid],activity at 30000 µM,BFP-aq [1]; [6],44%
same,activity at 30000 µM,BFP-aq [1]; [7],31%
same,pKa,[2],5.8
O=c1c(Cc2ccc(O)cc2)nc2c(CC3CCCC3)[nH]c(-c3ccc(O)cc3)cn1-2 [cp-Coelenterazine],Suitability as substrate in the BFP-aq light-emitting reaction system,BFP-aq [4],served as effective substrates
same,Relative luminescence activity Imax (%),BFP-aq [4]; with 150 mM imidazole,138%
same,Relative luminescence activity Initial velocity (%),BFP-aq [4]; with 150 mM imidazole,535%
same,Relative luminescence activity Imax (%),BFP-aq [4]; without imidazole,54%
same,Relative luminescence activity Initial velocity (%),BFP-aq [4]; without imidazole,152%
O=c1c(Cc2ccc(F)cc2)nc2c(Cc3ccccc3)[nH]c(-c3ccc(O)cc3)cn1-2 [f-Coelenterazine],Suitability as substrate in the BFP-aq light-emitting reaction system,BFP-aq [4],served as effective substrates
O=c1c(Cc2ccccc2)nc2c(Cc3ccccc3)[nH]c(-c3ccc(O)cc3)cn1-2 [h-Coelenterazine],Suitability as substrate in the BFP-aq light-emitting reaction system,BFP-aq [4],served as effective substrates
O=c1c(Cc2ccccc2)nc2c(CC3CCCC3)[nH]c(-c3ccc(O)cc3)cn1-2 [hcp-Coelenterazine],Suitability as substrate in the BFP-aq light-emitting reaction system,BFP-aq [4],served as effective substrates
same,Imax relative to coelenterazine without imidazole,BFP-aq [4]; with 150 mM imidazole,4 fold
same,Velocity of light-emitting reaction relative to coelenterazine without imidazole,BFP-aq [4]; with 150 mM imidazole,25 fold
B1,Km,[5]; with 150 mM imidazole,9.2 μM μM
same,Km,[5]; without imidazole,9.6 μM μM
